Experimental data as given in patent US4855287A, “Aminoglycoside compounds, processes for production thereof, and pharamaceutical composition containing the same” (Kowa Company, Ltd., priority 1985, dated 1989).
Where two headings read alike, the source gives them in different places.

Test system: Bacillus subtilis ATCC 6633
Experiment: Test for antibacterial activity (paper disk, diameter of inhibitory zone, before and after incubation in rat liver/kidney homogenate)
Type: cell-based
Details: 200 mcq/ml, 8 mm paper disk
Protocol: Each of the test compounds shown in the following table was dissolved in a concentration of 200 mcq/ml in a homogenate of a 10% physiological saline solution of an organ of a rat, and incubated at 37° C. for 2 hours. An enzymatic reaction was stopped by adding an equal amount of ethanol. The antibacterial activity of the test compound before incubation was compared with that after incubation. The incubation was carried out in an equal amount mixture of a liver homogenate and a kidney homogenate. The antibacterial activity was measured by a paper disk having a diameter of 8 mm using Bacillus subtilis ATCC 6633 as a test organism, and shown by the diameter of the resulting inhibitory zone.

[1] = ATCC6633, after incubation at 37° C. for 2 hours in rat liver homogenate and kidney homogenate, read-out: Diameter of the inhibitory zone, after incubation
[2] = ATCC6633, before incubation, read-out: Diameter of the inhibitory zone, before incubation

CCCCCCCCCC(=O)OCCCOC(=O)CC[C@H](N)C(=O)NCC(=O)N(C)C1CCC(N)C(OC2OC(C(C)N)CCC2N)C1O (stereo partly drawn) [Example 56, 2"-N-[N^γ -(3-decanoyloxypropyl)-L-glutamyl)-5-demethoxy-KA-6606I]
zone of inhibition at 200 µg/mL [1]: 24.6 mm | zone of inhibition at 200 µg/mL [2]: 17.5 mm

CCCOC1CCC2(C)C(CCC3C2CC(OCCC)C2(C)C(C(C)CCC(=O)NCCCNC(=O)CCC(N)C(=O)NCC(=O)N(C)C4C(O)CC(N)C(OC5OC(C(C)N)CCC5N)C4O)CCC32)C1 [Example 46, 2"-N-{N^γ -[3-(3,12-di-O-propyldeoxycholylamino)propyl]-L-glutaminyl}-5-di-O-methyl-KA-6606I]
zone of inhibition at 200 µg/mL [1]: 16.6 mm | zone of inhibition at 200 µg/mL [2]: 15.9 mm

CCCCCCCCCCCCCCCCCC(=O)NCCCC[C@H](N)C(=O)NCC(=O)N(C)C1C(O)CC(N)C(OC2OC(C(C)N)CCC2N)C1O (stereo partly drawn) [Example 3, 2"-N-(N^ε -stearoyl-L-lysyl)-5-de-O-methyl-KA-6606I]
zone of inhibition at 200 µg/mL [1]: 15.5 mm | zone of inhibition at 200 µg/mL [2]: 14 mm

CCCCCCCCNC(=O)CC[C@H](N)C(=O)NCC(=O)N(C)C1C(O)CC(N)C(OC2OC(C(C)N)CCC2N)C1O (stereo partly drawn) [Example 31, 2"-N-(N^γ-octyl-L-glutaminyl)-5-de-O-methyl-KA-6606I]
zone of inhibition at 200 µg/mL [1]: 19 mm | zone of inhibition at 200 µg/mL [2]: 15.3 mm

CC(=O)OC1CCC2(C)C(CCC3C2CC(OC(C)=O)C2(C)C(C(C)CCC(=O)NCCCNC(=O)CCC(N)C(=O)NCC(=O)N(C)C4C(O)CC(N)C(OC5OC(C(C)N)CCC5N)C4O)CCC32)C1 [Example 45, 2"-N-{N^γ -[3-(3,12-di-O-acetyldeoxycholylamino)propyl]-L-glutaminyl}-5-de-O-methyl-KA-6606I]
zone of inhibition at 200 µg/mL [1]: 16.7 mm | zone of inhibition at 200 µg/mL [2]: 14.8 mm

CCCCCCCCCC(=O)NC(CCCCNC(=O)CC[C@H](N)C(=O)NCC(=O)N(C)C1C(O)CC(N)C(OC2OC(C(C)N)CCC2N)C1O)C(=O)OC (stereo partly drawn) [Example 48, 2"-N-{N^γ -[5-(decanoylamino)-5-(methoxycarbonyl)pentyl]-L-glutaminyl}-5-de-O-methyl-KA-6606I]
zone of inhibition at 200 µg/mL [1]: 18.3 mm | zone of inhibition at 200 µg/mL [2]: 18 mm

CCCCCCCCCC(=O)NCCCCC(NC(=O)CC[C@H](N)C(=O)NCC(=O)N(C)C1C(O)CC(N)C(OC2OC(C(C)N)CCC2N)C1O)C(=O)OC (stereo partly drawn) [Example 49, 2"-N-{N^γ -[5-(decanoylamino)-1-(methoxycarbonyl)pentyl]-L-glutaminyl}-5-de-O-methyl-KA-6066I]
zone of inhibition at 200 µg/mL [1]: 16.1 mm | zone of inhibition at 200 µg/mL [2]: 15.9 mm

CCCCCCCCCC(=O)NCC(=O)NCCCC[C@H](N)C(=O)NCC(=O)N(C)C1C(O)CC(N)C(OC2OC(C(C)N)CCC2N)C1O (stereo partly shown) [Example 5]
zone of inhibition at 200 µg/mL [1]: 21 mm | zone of inhibition at 200 µg/mL [2]: 15.5 mm

CC(N)C1CCC(N)C(OC2C(N)CC(O)C(N(C)C(=O)CNC(=O)[C@@H](N)CSC(c3ccccc3)c3ccccc3)C2O)O1 (stereo partly drawn) [Example 53, 2"-N-(S-diphenylmethyl-L-cysteinyl)-5-de-O-methyl-KA-6606I]
zone of inhibition at 200 µg/mL [1]: 24.3 mm | zone of inhibition at 200 µg/mL [2]: 16.5 mm

CCCCCCCCCC(=O)NCCCNC(=O)CC[C@H](N)C(=O)NCC(=O)N(C)C1C(O)C(OC2OC(C(C)N)CCC2N)C(N)C(O)C1OC (stereo partly drawn) [Example 50, 2"-N-[N^γ -(3-decanoylaminopropyl)-L-glutaminyl)fortimicin A]
zone of inhibition at 200 µg/mL [1]: 23.6 mm | zone of inhibition at 200 µg/mL [2]: 15 mm

CCCCCCCCCC(=O)SC[C@H](N)C(=O)NCC(=O)N(C)C1C(O)CC(N)C(OC2OC(C(C)N)CCC2N)C1O (stereo partly drawn) [Example 55, 2"-N-(S-decanoyl-L-cysteinyl)-5-de-O-methyl-KA-6606I]
zone of inhibition at 200 µg/mL [1]: 18.6 mm | zone of inhibition at 200 µg/mL [2]: 10.3 mm

CC(N)C1CCC(N)C(OC2C(N)CC(O)C(N(C)C(=O)CNC(=O)[C@@H](N)CCC(=O)NCCCCCCCCO)C2O)O1 (stereo partly drawn) [Example 42, 2"-N-[N^γ -(8-hydroxyoctyl)-L-glutaminyl]-5-de-O-methyl-KA-6606I]
zone of inhibition at 200 µg/mL [1]: 23 mm | zone of inhibition at 200 µg/mL [2]: 15.1 mm

CC(N)C1CCC(N)C(OC2C(N)CC(O)C(N(C)C(=O)CNC(=O)[C@@H](N)CC(=O)Oc3cccc4ccccc34)C2O)O1 (stereo partly drawn) [Example 12, 2"-N-[β-O-(α-naphthyl)-L-aspartyl]-5-de-O-methyl-KA-6606I]
zone of inhibition at 200 µg/mL [1]: 18.3 mm | zone of inhibition at 200 µg/mL [2]: 12.6 mm

CCCCCCCCCC(=O)OCC(COC(=O)CCCCCCCCC)OC(=O)CCC(N)C(=O)NCC(=O)N(C)C1C(O)CC(N)C(OC2OC(C(C)N)CCC2N)C1O [Example 16, 2"-N-{γ-O-[2-(1,3-bis-decanoyloxy)propyl]-L-glutamyl}-5-de-O-methyl-KA-6606I]
zone of inhibition at 200 µg/mL [1]: 17.5 mm | zone of inhibition at 200 µg/mL [2]: 12.5 mm

CCCCCCCCCCCCCCCCCC(=O)OCC(O)COC(=O)C[C@H](N)C(=O)NCC(=O)N(C)C1C(O)CC(N)C(OC2OC(C(C)N)CCC2N)C1O (stereo partly drawn) [Example 13, 2"-N-[β-O-(3-stearoyloxy-2-hydroxypropyl)-L-aspartyl]-5-de-O-methyl-KA-6606I]
zone of inhibition at 200 µg/mL [1]: 18.8 mm | zone of inhibition at 200 µg/mL [2]: 13.7 mm

COC(=O)C[C@H](N)C(=O)NCC(=O)N(C)C1C(O)CC(N)C(OC2OC(C(C)N)CCC2N)C1O (stereo partly drawn) [Example 8, 2"-N-(β-O-methyl-L-aspartyl)-5-de-O-methyl-KA-666I]
zone of inhibition at 200 µg/mL [1]: 23.9 mm | zone of inhibition at 200 µg/mL [2]: 15.9 mm

CC(N)C1CCC(N)C(OC2C(N)CC(O)C(N(C)C(=O)CNC(=O)[C@@H](N)CCC(=O)N[C@@H](Cc3ccccc3)C(=O)O)C2O)O1 (stereo partly drawn) [Example 47, 2"-N-{N^γ -[(s)-1-carboxy-2-phenyl-ethyl]-L-glutaminyl}-5-de-O-methyl-KA-6606I]
zone of inhibition at 200 µg/mL [1]: 17.9 mm | zone of inhibition at 200 µg/mL [2]: 9.5 mm

CC(N)C1CCC(N)C(OC2C(N)CC(O)C(N(C)C(=O)CNC(=O)[C@@H](N)CCC(=O)OCCCCOC(=O)CC[C@@H](C)[C@H]3CC[C@H]4[C@@H]5CC[C@@H]6C[C@H](O)CC[C@]6(C)[C@H]5C[C@H](O)[C@]34C)C2O)O1 (stereo partly drawn) [Example 26, 2"-N-[γ-O-(4-deoxycholyloxybutyl)-L-glutamyl]-5-de-O-methyl-KA-6606I]
zone of inhibition at 200 µg/mL [1]: 21.8 mm | zone of inhibition at 200 µg/mL [2]: 14.8 mm

CC(N)C1CCC(N)C(OC2C(N)CC(O)C(N(C)C(=O)CNC(=O)[C@@H](N)CSCc3ccncc3)C2O)O1 (stereo partly drawn) [Example 54, 2"-N-[S-(4-picolyl)-L-cysteinyl]-5-de-O-methyl-KA-6606I]
zone of inhibition at 200 µg/mL [1]: 25.3 mm | zone of inhibition at 200 µg/mL [2]: 14.1 mm

CC(N)C1CCC(N)C(OC2C(N)CC(O)C(N(C)C(=O)CNC(=O)[C@@H](N)CCC(=O)Nc3cccc4ccccc34)C2O)O1 (stereo partly drawn) [Example 33, 2"-N-[N^γ-(1-naphthyl)-L-glutamin-yl]-de-O-methyl-KA-6606I]
zone of inhibition at 200 µg/mL [1]: 23.5 mm | zone of inhibition at 200 µg/mL [2]: 15.7 mm

CCCCCCNC(=O)CNC(=O)CC[C@H](N)C(=O)NCC(=O)N(C)C1C(O)CC(N)C(OC2OC(C(C)N)CCC2N)C1O (stereo partly drawn) [Example 44, 2"-N-[N^γ -(hexylaminocarbonylmethyl)-L-glutaminyl]-5-de-O-methyl-KA-6606I]
zone of inhibition at 200 µg/mL [1]: 20.2 mm | zone of inhibition at 200 µg/mL [2]: 8 mm

CC(N)C1CCC(N)C(OC2C(N)CC(O)C(N(C)C(=O)CNC(=O)[C@@H](N)CSCc3ccc([N+](=O)[O-])cc3)C2O)O1 (stereo partly drawn) [Example 52, 2"-N-[S-(p-nitrobenzyl)-L-cysteinyl]-5-de-O-methyl-KA-6606I]
zone of inhibition at 200 µg/mL [1]: 26.2 mm | zone of inhibition at 200 µg/mL [2]: 20.7 mm

CCCCCCCCCC(=O)OCCCOC(=O)CC[C@H](N)C(=O)NCC(=O)N(C)C1C(O)CC(N)C(OC2OC(C(C)N)CCC2N)C1O (stereo partly drawn) [Example 18, 2"-N-[γ-O-(3-decanoyloxypropyl)-L-glutamyl]-5-de-O-methyl-KA-6606I]
zone of inhibition at 200 µg/mL [1]: 23.9 mm | zone of inhibition at 200 µg/mL [2]: 16.8 mm

CCCCCCCCOC(=O)C[C@H](N)C(=O)NCC(=O)N(C)C1C(O)CC(N)C(OC2OC(C(C)N)CCC2N)C1O (stereo partly drawn) [Example 10, 2"-N-(β-O-octyl-L-aspartyl)-5-de-O-methyl-KA-6606I]
zone of inhibition at 200 µg/mL [1]: 21.1 mm | zone of inhibition at 200 µg/mL [2]: 14.2 mm

CCCCCCCCCC(=O)OCC(COC(=O)CC[C@H](N)C(=O)NCC(=O)N(C)C1C(O)CC(N)C(OC2OC(C(C)N)CCC2N)C1O)OC(=O)CCCCCCCCC (stereo partly drawn) [Example 17, 2"-N-[γ-O-(2,3-bis-decanoyloxypropyl)-L-glutamyl]-5-de-O-methyl-KA-66606I]
zone of inhibition at 200 µg/mL [1]: 19.7 mm | zone of inhibition at 200 µg/mL [2]: 10.6 mm

CCCCCCCCCC(=O)OCCOC(=O)CC[C@H](N)C(=O)NCC(=O)N(C)C1C(O)CC(N)C(OC2OC(C(C)N)CCC2N)C1O (stereo partly drawn) [Example 15, 2"-N-[γ-O-(2-decanoyloxyethyl)-L-glutamyl]-5-de-O-methyl-KA-6606I]
zone of inhibition at 200 µg/mL [1]: 24.4 mm | zone of inhibition at 200 µg/mL [2]: 13.9 mm

CCCCCCCCCCCC(=O)NCCCNC(=O)CC[C@H](N)C(=O)NCC(=O)N(C)C1C(O)CC(N)C(OC2OC(C(C)N)CCC2N)C1O (stereo partly drawn) [Example 39, 2"-N-[N^γ -(3-lauroylaminopropyl)-L-glutaminyl]-5-de-O-methyl-KA-6606I]
zone of inhibition at 200 µg/mL [1]: 21.2 mm | zone of inhibition at 200 µg/mL [2]: 9.8 mm

CC(N)C1CCC(N)C(OC2C(N)CC(O)C(N(C)C(=O)CNC(=O)[C@@H](N)CC(=O)Oc3ccccc3)C2O)O1 (stereo partly drawn) [Example 11, 2"-N-(β-O-phenyl-L-aspartyl)-5-de-O-methyl-KA-6606I]
zone of inhibition at 200 µg/mL [1]: 19 mm | zone of inhibition at 200 µg/mL [2]: 14 mm

CCCCCCCCCC(=O)OCC(CCOC(=O)CC[C@H](N)C(=O)NCC(=O)N(C)C1C(O)CC(N)C(OC2OC(C(C)N)CCC2N)C1O)OC(=O)CCCCCCCCC (stereo partly drawn) [Example 22, 2"-N-{γ-[3,4-bis-(decanoyloxy)butyl]-L-glutamyl}-5-de-O-methyl-KA-6606I]
zone of inhibition at 200 µg/mL [1]: 18.3 mm | zone of inhibition at 200 µg/mL [2]: 10.7 mm
